In brackets after ≈: the same amount, converted by molar mass.
B1: RamR: multidrug resistance regulator from Salmonella typhimurium, template for sensor evolution (protein)
chain: MVARPKSEDKKQALLEAATQAIAQSGIAASTAVIARNAGVAEGTLFRYFATKDELINTLYLHLRQDLCQSLIMELDRSITDAKMMMRFIWNSGISWGLNHPARHRAIRQLAVSEKLTKETHQRDLDMFPELRDILHRRVLMVFMSDEYRAFGDGLFLALAETTMDFAARDPARAGEYIALGFEAMWRALTREEQ
modifications: Description of sequence peptide sensor; Name PAP4; This sensor binds to papaverine
notes: multidrug resistance regulator from Salmonella typhimurium, template for sensor evolution

What was measured:
[1] = Solubility limit of BIAs in 1% DMSO; assay type: physicochemical; conditions: used as maximum ligand concentration
Description: (a) Transfer functions for all four generations of RamR variants with five different BIAs. The maximum ligand concentration was chosen based on the compound's solubility limit in 1% DMSO, 100 μM for Noscapine and 250 μM for all other BIAs. Fluorescent measurements for each condition were an average of three biological replicates. (b) Background fluorescence measurements for all RamR generations. The same promoter was used to express variants from each evolutionary trajectory (see methods) (c) Orthogonality matrix of all evolved sensors. Fold-response is shown for all BIAs for the native RamR protein, the first, second, third, and fourth generations from top to bottom, respectively. 100 μM of the indicated BIA was applied in all conditions. Measurements for each condition were an average of three biological replicates.

RamR = molecular target: T1, RamR (Salmonella typhimurium, UniProt Q8ZR43); test: Biosensor response assay: fluorescence response of multidrug resistance regulators to target BIAs; assay type: cell-based, Escherichia coli; conditions: E. coli DH10B, pReg + pGFP (sfGFP); glaucine 1 mM, noscapine 100 uM, papaverine 500 uM, rotundine 250 uM, tetrahydropapaverine 1 mM
T1 construct: expressed in transfected cells; host or cells: E. coli DH10B co-transformed with pReg (regulator) and pGFP (reporter)
T1 sequence (Q8ZR43 whole entry, looked up): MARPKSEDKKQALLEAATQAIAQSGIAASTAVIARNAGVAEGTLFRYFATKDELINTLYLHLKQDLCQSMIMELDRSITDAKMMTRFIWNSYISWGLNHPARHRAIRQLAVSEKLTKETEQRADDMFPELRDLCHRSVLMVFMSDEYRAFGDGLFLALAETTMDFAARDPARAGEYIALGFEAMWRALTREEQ
Description: To identify a biosensor with some degree of BIA affinity to serve as a suitable scaffold for evolution, the responsiveness of six well characterized multidrug resistance regulators, QacR, TtgR, RamR, SmeT, NalD, and Bm3R1 to the target BIAs were assayed. Regulators were constitutively expressed on one plasmid (pReg) that was co-transformed with another plasmid bearing the regulator's cognate promoter expressing sfGFP (pGFP). Promoters for QacR and TtgR were obtained from the literature while promoters for the remainder were designed by either placing the sensor's operator downstream a medium strength promoter (Bm3R1) or by modifying the −35 or −10 regions of the sensor's native promoter towards the E. coli consensus (NalD, SmeT, RamR) [18*, 18**] if necessary to produce sufficient transcription (FIG. 7a). The ability of each regulator to repress transcription was confirmed by measuring the promoter activity with and without the expression of the cognate sensor via fluorescence (FIG. 7b). […]
Promoters for TtgR and QacR were derived from the literature. […] 100 μL of the cell resuspension for each condition was transferred to a 96 well microtiter plate (Corning, Product #: 3904), from which the fluorescence (Ex: 485 nm, Em: 509 nm) and absorbance ([…]) was measured using the Tecan Infinite M1000 plate reader.

| Molecule | solubility limit in 1% DMSO [1] [µM] | Fluorescence response to target BIAs (RamR) |
| --- | --- | --- |
| COc1ccc2c(c1OC)C(=O)O[C@@H]2[C@H]1c2c(cc3c(c2OC)OCO3)CCN1C [Noscapine, noscapine] | 100 (≈ 41.3 µg/mL) | – |
| B1 | – | moderately responsive |

Source: patent US20250051862A1, “METHODS AND COMPOSITIONS RELATED TO ENGINEERED BIOSENSORS” (priority 2021, published 2025)
